From patent publication US9144595B2, “APLs for treating arthritis” (University of Tennessee Research Foundation, priority 2009, dated 2015)

Tests used:
[1] = system: splenocytes of DR1 transgenic mice; assay: Oral APL A12: IFNγ production by cultured splenocytes of DR1 transgenic mice; type: in vivo, mouse
[2] = system: Peyer's Patch cells of DR1 TCRtg+/+ mice; assay: Oral APL A12: IL-17 and IL-10 in cultures of Peyer's Patch cells of DR1 TCRtg+/+ mice; type: in vivo, mouse
[3] = system: patients with recent onset of type 1 diabetes mellitus; conditions: IFNγ and IL-5 ELISPOT, weeks 0-26; cited from earlier work
[4] = system: patients with RA; conditions: cited from earlier work
[5] = system: murine models of oral tolerance; assay: Murine models of oral tolerance; conditions: mouse, in vivo
Source text: A form of CII based therapy has been tried in patients with RA and juvenile RA by administering intact native chick or bovine CII to patients. Seven trials of treatment with oral CII have been reported including two of our own. […] Most patients in these studies also received NSAIDs which block oral tolerance and systemic tolerance. The use of NSAIDS might have been responsible for the mixed results of oral CII in RA. […] Furthermore, we have applied these crucial data in designing oral tolerance trials in humans. We can down regulate with oral CII, PBMC production of IFNγ to α1(II) in RA patients who take NSAIDS plus misoprostol and/or DMARDS and anti-TNFα therapies. Oral administration of low dose antigen generates regulatory T cells, which act in the respective microenvironment in a non-antigen specific manner by producing down-regulatory cytokines such as IL4, IL10 and TGFbeta, a Th2/Th3 cytokine pattern.

[6] = system: DR1 Transgenic mice; assay: Effect of A12 on CIA in DR1 Transgenic mice (CII plus A12; intravenous A12 after CII-immunization); type: in vivo, mouse
Method: Assuming that CII263-270 was key to developing immunity to the intact CII molecule, a number of analog peptides where amino acids within this small segment were substituted with those found in the corresponding sites of nonarthritogenic type I collagen were prepared and tested. […] The APL A12 developed for this study has the following amino acid sequence: LGPKGQTGEBG[IAGNKGDQGPK]GEBGPA (SEQ ID NO: 3) where B=hydroxproline. The core determinant of human CII263-270 is bracketed. The underlined residues are those substituted to produce APL A12. The residues amino terminal and carboxy terminal to the core determinant is from the normal human CII sequence.

[7] = mice gavaged with 50 μg CII263-270 9 times over 2 weeks, cells cultured with PBS
[8] = mice gavaged with 50 μg CII263-270, cells cultured with APL A12 50 μg/ml
[9] = mice gavaged with 50 μg CII263-270, cells cultured with CII263-270 50 μg/ml
[10] = mice gavaged with PBS, cells cultured with CII263-270 50 μg/ml

## FKGEQGPK [CII263-270, reference compound]
[1]; mice gavaged with 50 μg CII263-270 8 times over 2 weeks, splenocytes cultured with PBS
  IFNγ Levels in Splenocyte Culture: 68 ± 85 pg/mL
[1]; mice gavaged with 50 μg CII263-270, splenocytes cultured with APL A12 50 μg/ml
  IFNγ Levels in Splenocyte Culture: 80 ± 52 pg/mL
[1]; mice gavaged with 50 μg CII263-270, splenocytes cultured with CII263-270 50 μg/ml
  IFNγ Levels in Splenocyte Culture: 124 ± 84 pg/mL
[1]; mice gavaged with PBS, splenocytes cultured with CII263-270 50 μg/ml
  IFNγ Levels in Splenocyte Culture: 280 ± 222 pg/mL
[2]; [7]
  II-10 Levels in Peyer's Patch Cultures: 15 pg/mL
  IL-17 Levels in Peyer's Patch Cultures: 11 pg/mL
[2]; [8]
  II-10 Levels in Peyer's Patch Cultures: 35 pg/mL
  IL-17 Levels in Peyer's Patch Cultures: 62 pg/mL
[2]; [9]
  II-10 Levels in Peyer's Patch Cultures: 15 pg/mL
  IL-17 Levels in Peyer's Patch Cultures: 256 pg/mL
[2]; [10]
  II-10 Levels in Peyer's Patch Cultures: 45 pg/mL
  IL-17 Levels in Peyer's Patch Cultures: 30 pg/mL

## SHLVEALALVAGERG [NBI-6024]
[3]
  PBMC ELISPOT responses to B(9-23) epitope and NBI-6024: induced, predominantly Th2 responses

## [O]QKRAAYDQ[U]YGHAAFE (QKRAAYDQYGHAAFE; Synthetic peptide dnaJP1) [synthetic peptide derived from bacterial heat shock protein]
[4]; CD3+ cells, oral, six months
  cytokine profile: switch in the cytokine profile from Th1 to Th2
[4]; oral 0.25, 2.5 and 25 mg per day for six months
  tolerability: well tolerated and no significant side effects occurred
[4]; oral, six months
  worsening of arthritis: no worsening of arthritis

## etanercept
[5]
  oral tolerance induction: do not block oral tolerance induction

B1: Ova: control antigen given intravenously in Table I (protein, UniProt P01012 2-386, looked up)
Ovalbumin: GSIGAASMEFCFDVFKELKVHHANENIFYCPIAIMSALAMVYLGAKDSTRTQINKVVRFDKLPGFGDSIEAQCGTSVNVHSSLRDILNQITKPNDVYSFSLASRLYAEERYPILPEYLQCVKELYRGGLEPINFQTAADQARELINSWVESQTNGIIRNVLQPSSVDSQTAMVLVNAIVFKGLWEKAFKDEDTQAMPFRVTEQESKPVQMMYQIGLFRVASMASEKMKILELPFASGTMSMLVLLPDEVSGLEQLESIINFEKLTEWTSSNVMEERKIKVYLPRMKMEEKYNLTSVLMAMGITDVFSSSANLSGISSAESLKISQAVHAAHAEINEAGREVVGSAEAGVDAASVSEEFRADHPFLFCIKHIATNAVLFFGRCVSP
[6]; 1 mg total i.v.
  Antibodies to CII: 42 ± 10
[6]; arthritis incidence, 1 mg total i.v. on days 10, 12, 14 after CII-immunization
  Incidence: 7/10
